Laboratory results reported in patent publication US10603385B2, “Methods and compositions for templated assembly of nucleic acid specific heterocompounds” (priority 2013, dated 2020).

Tested on: Caski cells
Experiment: Azide-cyclooctyne templated assembly on HPV16 E6/E7 in transfected living cells, sandwich detection of ligated product
Format: cell-based, human
Details: Lipofectamine 2000 transfection, 24 hours after transfection
Method: A set of corresponding reactants specific for the HPV16 E6/E7 gene were transfected into Caski cells to evaluate non-traceless nucleic acid templated assembly on tumor-associated targets in living cells. Sandwich enzymatic detection was used to confirm that templated assembly ligation product was preferentially formed in Caski cells rather than related cell lines lacking HPV16 E6/E7 sequence
Caski and HeLa cell lines were cultured in DMEM medium with 10% heat inactivated fetal bovine serum. For each experimental condition, 1×10^6 cells were plated in a T-25 flask 24 hours before transfection. A flask from each cell line was transfected with both templated assembly reactants (experimental), and Caski flasks were also transfected with each one of the reactants in isolation as well (negative controls).
Lipofectamine 2000 (Invitrogen) was used as the transfection reagent in accordance with the manufacturer's instructions Immediately prior to transfection, cell flasks were washed with 1×PBS and Optimem serum-free medium was added as the growth medium. […] Separately, 11 uL of Lipofectamine 2000 was incubated with 275 uL of Optimem serum-free medium for 15 minutes. […] 500 uL of the Oligo-3.1-Lipofectamine transfection solution was then dispensed to the experimental flask. […]

5′-FAM-CCAGAUGUCUUUGCU-Azide-3′ [Oligo-3.1]
Corrected Absorbance A450: 0.003
